Assay results from patent US8080404B1, “Enzymatic decontamination” (priority 2005, dated 2011).

Tested on: Bacillus anthracis NNR1Δ1 spores
Format: cell-based

Which “promotion of spore killing by zwitterionic surfactant” value does the source give for `CCCCCCCCCCCC[N+](C)(C)CCCS(=O)(=O)[O-]` [3-(dodecyldimethylamino) propane sulfonate] here?
The value was “most efficient at promoting spore killing”.

For octyl phenol ethoxylate [triton X-100], which “spore kill efficiency with surfactant” value is on record?
Its value is “most efficient formulation for spore inactivation”.

`CC(=O)O` [acetic acid] was tested. Which “kill rate with acetyl donor” value did it give?
The value was “enhanced the kill rate to about the same degree as did 0.125% acetylsalicylic acid”.

Which “efficiency of spore killing with acetyl donor” value does the source give for `CC(=O)Oc1ccccc1C(=O)O` [acetylsalicylic acid] here?
Its value is “increasing concentrations of acetylsalicylic acid resulted in increased efficiency of spore killing”.
